# Experimental data reported in publication PMC3138742 (PLoS ONE, 2011).
# Entries after “also recorded” stand apart in the source; their conditions may differ.
# Legend:
# NCI-H1975 cells = assay: Cell proliferation SRB assay; assay type: cell-based, human; settings: NCI-H1975 cells (EGFR T790M/L858R)
# Procedure: Cell viability was determined using sulforhodamine B assay. IC50 values were determined based on the results of three independent experiments. […] Whole-cell lysates were assayed for total EGFR and phosphorylation of EGFR by immunoblotting. A representative anti-GAPDH immunoblot is shown as a loading control. […] Cell viability was determined using sulforhodamine B assay.
# Cell proliferation was evaluated using the SRB (Sulforhodamine B) assay as previously described. Briefly, cells were seeded into 96-well plates and grown for 24 h. […] The medium remained unchanged until the completion of the experiment. The cells were then fixed with 10% precooled trichloroacetic acid (TCA) for 1 h at 4°C and stained for 15 min at room temperature with 100 μL of 4 mg/mL SRB solution (Sigma) in 1% acetic acid. The SRB was then removed, and the cells were quickly rinsed five times with 1% acetic acid. After cells were air-dried, protein-bound dye was dissolved in 150 μL of 10 mmol/L Tris base for 5 min and measured at 515 nm using a multiwell spectrophotometer (VERSAmax, Molecular Devices). […] The IC50 value was obtained by the Logit method and was determined from the results of at least 3 independent tests.
# ErbB2 = ErbB2 (Homo sapiens, UniProt P04626); assay: Rapid dilution irreversibility experiment; assay type: biochemical; parameters: The kinase domain of EGFR, ErbB-2, IGF1R, VEGFR2, FGFR1, PDGFRα, c-Src, c-Met, RON, c-Kit, EphA2 and EphB2 were expressed; made in house; settings: preincubated 30 min at 100-fold IC50, diluted 100-fold, sampled 180 minutes
# Procedure: (§1) The microplate was placed in the EZ Reader (Caliper Life Sciences, MA) and wells were repeatedly sampled for 180 minutes.
# (§2) To verify this, we determined the reversibility of EGFR and ErbB2 binding using a dilution method. […] After incubating, the enzyme/inhibitor mixture is diluted 100-fold (i.e., to normal reaction conditions), reaction buffer plus ATP and substrate are added, and receptor kinase activity is measured continuously. In general, a reversible inhibitor dissociates quickly, allowing immediate recovery of enzymatic activity, whereas a slowly reversible inhibitor allows a gradual increase in activity. In contrast, an irreversible inhibitor prevents recovery of enzymatic activity.
# EGFR = EGFR (Homo sapiens, UniProt P00533); assay: Rapid dilution irreversibility experiment; assay type: biochemical; parameters: The kinase domain of EGFR, ErbB-2, IGF1R, VEGFR2, FGFR1, PDGFRα, c-Src, c-Met, RON, c-Kit, EphA2 and EphB2 were expressed; made in house; settings: preincubated 30 min at 100-fold IC50, diluted 100-fold, sampled 180 minutes
# Procedure: as §1, §2
# SK-OV-3 cells = assay: Anchorage-independent growth on soft agar; assay type: cell-based, human; settings: two weeks
# Procedure: The culture was maintained at 37°C in a 5% CO2 atmosphere for two weeks. The average colony number was calculated and colonies were photographed. Columns, mean of triplicate samples; bars, SE. Significant differences were evaluated using the Student's test (*P<0.05; ** P<0.01). (TIF) Click here for additional data file. Anchorage-independent cell transformation assay. Cell transformation was detected in SK-OV-3 and A549 cells, respectively. […] The culture were maintained in a 37°C, 5% CO2 incubator for 1-2 weeks, and the cell colonies were scored using a microscope and the Image-Pro PLUS computer software program (Media Cybernetics, Silver Spring, MD). Data are shown as means ± SD of values from triplicate experiments and the asterisk (*) indicates a significant (*P<0.05, ** P<0.01) decrease in colony number compared to untreated control.
# ErbB4 = ErbB4 (Homo sapiens, UniProt Q15303); settings: ErbB4, cell-free; means ± SD
# Procedure: The tyrosine kinase activities were determined using enzyme-linked immunosorbant assay (ELISA). The serine/threonine kinase activities were detected by Caliper Mobility Shift Assay on EZ Reader (Caliper Life Sciences, MA) according to the instruction.
# The tyrosine kinase activities were determined in 96-well ELISA plates (Corning, NY, USA) precoated with 20 μg/mL Poly (Glu,Tyr)4:1. First, 80 μL of 5 μM ATP solution diluted in kinase reaction buffer (50 mM HEPES pH 7.4, 20 mM MgCl2, 0.1 mM MnCl2, 0.2 mM Na3VO4, 1 mM DTT) was added to each well. […] Subsequently, the kinase reaction was initiated by the addition of purified tyrosine kinase proteins diluted in 10 μL of kinase reaction buffer solution. Experiments at each concentration were performed in duplicate. After incubation for 60 min at 37 °C, the plate was washed three times with phosphate buffered saline (PBS) containing 0.1% Tween 20 (T-PBS). Next, 100 μL anti-phosphotyrosine antibody (PY99, 1:500 dilution) diluted in T-PBS containing 5 mg/mL BSA was added. After 30 min incubation at 37 °C, the plate was washed three times as before. Horseradish peroxidase-conjugated goat anti-mouse IgG (100 μL) diluted 1:2000 in T-PBS containing 5 mg/ml BSA was added. The plate was reincubated at 37 °C for 30 min, and then washed with PBS.
# A549 xenograft = assay: Human tumor xenograft model, tumor growth; assay type: in vivo; settings: nude mice, p.o. twice daily
# Procedure: (§3) The mice were housed and maintained under specific-pathogen free (SPF) conditions. All animal procedures were performed according to the protocol approved by the Institutional Animal Care and Use Committee at Shanghai Institute of Materia Medica, Chinese Academy of Sciences (SIMM-AE-DJ-2010-01). Under sterile conditions, well-developed tumors were cut into 1-mm^3 fragments and transplanted s.c. into the right flank of nude mice using a trocar. When the tumor reached a volume reached 100 to 200 mm^3, the mice were randomly assigned into control and treatment groups. […] The sizes of the tumors were measured twice per week using microcalipers. The tumor volume (V) was calculated as follows: V = (length×width^2)/2. The body weights of the mice were observed simultaneously.
# HO-8910 xenograft = assay: Human tumor xenograft model, tumor growth; assay type: in vivo; settings: nude mice, p.o. twice daily
# Procedure: as §3
# Calu-3 xenograft = assay: Human tumor xenograft model, tumor growth; assay type: in vivo; settings: nude mice, p.o. twice daily
# Procedure: as §3
# SK-OV-3 xenograft = assay: Human tumor xenograft model, tumor growth; assay type: in vivo; settings: nude mice, p.o. twice daily
# Procedure: as §3
# Sequence of EGFR (P00533 712-979 limits assumed): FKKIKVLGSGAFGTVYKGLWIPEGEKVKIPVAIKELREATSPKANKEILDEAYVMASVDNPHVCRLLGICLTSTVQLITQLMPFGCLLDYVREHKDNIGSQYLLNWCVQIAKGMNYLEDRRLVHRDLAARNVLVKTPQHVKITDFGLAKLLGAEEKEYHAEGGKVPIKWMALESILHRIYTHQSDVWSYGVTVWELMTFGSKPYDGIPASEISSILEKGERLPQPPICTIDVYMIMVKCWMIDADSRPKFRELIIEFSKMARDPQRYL
# Sequence of ErbB2 (P04626 720-987 limits assumed): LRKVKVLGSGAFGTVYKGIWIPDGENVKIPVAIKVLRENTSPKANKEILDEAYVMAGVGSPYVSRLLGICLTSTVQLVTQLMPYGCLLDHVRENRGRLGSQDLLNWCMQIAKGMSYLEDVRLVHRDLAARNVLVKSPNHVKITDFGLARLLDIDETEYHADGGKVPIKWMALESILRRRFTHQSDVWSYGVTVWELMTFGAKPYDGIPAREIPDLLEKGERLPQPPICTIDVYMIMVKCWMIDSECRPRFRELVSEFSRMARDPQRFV
# Sequence of ErbB4 (Q15303 26-1308, species assumed): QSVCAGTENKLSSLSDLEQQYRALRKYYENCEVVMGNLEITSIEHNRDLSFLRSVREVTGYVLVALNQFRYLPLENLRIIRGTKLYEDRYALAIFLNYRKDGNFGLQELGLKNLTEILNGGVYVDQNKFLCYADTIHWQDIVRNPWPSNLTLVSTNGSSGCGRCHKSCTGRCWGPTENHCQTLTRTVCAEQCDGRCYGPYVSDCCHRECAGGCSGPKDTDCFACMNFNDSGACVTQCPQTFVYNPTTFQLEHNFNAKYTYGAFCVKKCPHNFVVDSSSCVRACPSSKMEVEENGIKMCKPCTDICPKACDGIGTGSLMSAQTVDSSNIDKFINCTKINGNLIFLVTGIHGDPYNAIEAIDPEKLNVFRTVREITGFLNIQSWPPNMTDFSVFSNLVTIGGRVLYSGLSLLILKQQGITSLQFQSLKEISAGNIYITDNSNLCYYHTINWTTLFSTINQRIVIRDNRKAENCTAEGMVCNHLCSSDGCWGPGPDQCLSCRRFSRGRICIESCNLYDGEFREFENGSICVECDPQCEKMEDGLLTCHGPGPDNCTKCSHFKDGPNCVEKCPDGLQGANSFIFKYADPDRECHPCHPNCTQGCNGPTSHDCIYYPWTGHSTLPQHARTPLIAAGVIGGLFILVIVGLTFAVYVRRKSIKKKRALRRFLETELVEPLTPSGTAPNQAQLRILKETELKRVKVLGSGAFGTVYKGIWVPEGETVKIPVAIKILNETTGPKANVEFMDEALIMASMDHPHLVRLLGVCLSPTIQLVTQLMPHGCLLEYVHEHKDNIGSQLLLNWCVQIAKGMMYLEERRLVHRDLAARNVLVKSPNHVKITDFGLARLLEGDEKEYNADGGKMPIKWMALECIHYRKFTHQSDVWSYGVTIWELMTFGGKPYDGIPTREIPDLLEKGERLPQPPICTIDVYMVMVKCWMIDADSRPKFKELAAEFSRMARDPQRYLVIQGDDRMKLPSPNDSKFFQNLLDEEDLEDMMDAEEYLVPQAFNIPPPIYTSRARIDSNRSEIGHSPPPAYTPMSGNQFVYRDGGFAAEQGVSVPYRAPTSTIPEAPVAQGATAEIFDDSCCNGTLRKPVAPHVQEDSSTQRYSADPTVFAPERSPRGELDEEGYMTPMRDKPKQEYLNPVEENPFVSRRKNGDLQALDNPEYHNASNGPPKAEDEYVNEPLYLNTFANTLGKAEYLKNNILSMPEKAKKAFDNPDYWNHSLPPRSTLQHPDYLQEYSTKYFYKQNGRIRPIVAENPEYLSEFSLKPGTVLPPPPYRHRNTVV
smiles,measurement,setting,value
C=CC(=O)Nc1ccc2ncnc(Nc3ccc(OCc4cccc(F)c4)c(Cl)c3)c2c1 [AST1306],inhibition of cell growth,NCI-H1975 cells,inhibited the growth
same,recovery of ErbB2 enzymatic activity after dilution,ErbB2,virtually no EGFR or ErbB2 activity was recovered
same,recovery of EGFR enzymatic activity after dilution,EGFR,virtually no EGFR or ErbB2 activity was recovered
same,anchorage-independent growth on soft agar,SK-OV-3 cells,dramatically inhibit the growth
same,IC50,ErbB4,0.8 ± 0.3 nM
same,tumor growth,A549 xenograft,only slightly suppressed tumor growth
same,tumor growth,HO-8910 xenograft,only slightly suppressed tumor growth
same,tumor growth,Calu-3 xenograft,dramatic suppression of tumor growth
same,tumor growth,SK-OV-3 xenograft,dramatic suppression of tumor growth; also recorded: more efficacious than lapatinib
same,tumors after treatment for 7 d,SK-OV-3 xenograft; 7 d,tumors almost completely disappeared
